{
  "source": "ChEMBL document CHEMBL1201862",
  "about": "“PubChem BioAssay data set” (2004)",
  "key": {"[1]": {"target": "1-phosphatidylinositol 4,5-bisphosphate phosphodiesterase beta-3 (Homo sapiens, UniProt Q01970)", "sequence (Q01970 whole entry)": "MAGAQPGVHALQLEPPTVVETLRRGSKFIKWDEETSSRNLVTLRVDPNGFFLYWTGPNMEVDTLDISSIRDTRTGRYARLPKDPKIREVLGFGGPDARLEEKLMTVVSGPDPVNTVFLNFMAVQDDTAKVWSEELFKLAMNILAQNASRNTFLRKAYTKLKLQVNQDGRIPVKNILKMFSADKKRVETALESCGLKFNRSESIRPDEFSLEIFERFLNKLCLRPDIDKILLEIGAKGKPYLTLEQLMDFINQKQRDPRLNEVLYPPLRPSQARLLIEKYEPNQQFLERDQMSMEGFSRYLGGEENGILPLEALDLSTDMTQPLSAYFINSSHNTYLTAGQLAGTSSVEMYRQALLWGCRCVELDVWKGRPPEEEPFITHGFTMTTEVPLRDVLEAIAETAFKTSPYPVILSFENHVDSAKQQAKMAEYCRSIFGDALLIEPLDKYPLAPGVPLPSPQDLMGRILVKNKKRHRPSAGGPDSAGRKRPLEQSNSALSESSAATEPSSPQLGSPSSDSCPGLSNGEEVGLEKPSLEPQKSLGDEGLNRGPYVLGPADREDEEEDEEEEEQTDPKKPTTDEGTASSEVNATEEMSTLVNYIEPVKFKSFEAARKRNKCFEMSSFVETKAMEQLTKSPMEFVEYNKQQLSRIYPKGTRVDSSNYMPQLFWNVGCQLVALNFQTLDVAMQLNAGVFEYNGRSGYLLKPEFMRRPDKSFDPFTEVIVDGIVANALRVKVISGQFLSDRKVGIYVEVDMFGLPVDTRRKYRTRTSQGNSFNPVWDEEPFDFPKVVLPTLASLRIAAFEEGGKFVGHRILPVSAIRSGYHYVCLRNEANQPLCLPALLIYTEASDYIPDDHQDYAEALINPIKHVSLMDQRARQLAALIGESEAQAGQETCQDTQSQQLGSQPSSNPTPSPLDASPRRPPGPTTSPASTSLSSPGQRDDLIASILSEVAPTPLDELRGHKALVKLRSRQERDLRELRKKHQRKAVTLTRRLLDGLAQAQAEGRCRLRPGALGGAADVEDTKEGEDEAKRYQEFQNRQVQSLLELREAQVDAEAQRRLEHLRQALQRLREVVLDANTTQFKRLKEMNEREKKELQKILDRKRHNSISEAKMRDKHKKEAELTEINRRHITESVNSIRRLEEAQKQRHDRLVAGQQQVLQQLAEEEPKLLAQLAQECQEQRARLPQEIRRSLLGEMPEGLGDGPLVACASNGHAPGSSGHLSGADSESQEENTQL", "assay": "Fluorescence-based biochemical high throughput dose response assay to identify inhibitors of phospholipase C isozymes (PLC-B3)."}, "[2]": {"target": "1-phosphatidylinositol 4,5-bisphosphate phosphodiesterase gamma-1 (Homo sapiens, UniProt P19174)", "sequence (P19174 whole entry)": "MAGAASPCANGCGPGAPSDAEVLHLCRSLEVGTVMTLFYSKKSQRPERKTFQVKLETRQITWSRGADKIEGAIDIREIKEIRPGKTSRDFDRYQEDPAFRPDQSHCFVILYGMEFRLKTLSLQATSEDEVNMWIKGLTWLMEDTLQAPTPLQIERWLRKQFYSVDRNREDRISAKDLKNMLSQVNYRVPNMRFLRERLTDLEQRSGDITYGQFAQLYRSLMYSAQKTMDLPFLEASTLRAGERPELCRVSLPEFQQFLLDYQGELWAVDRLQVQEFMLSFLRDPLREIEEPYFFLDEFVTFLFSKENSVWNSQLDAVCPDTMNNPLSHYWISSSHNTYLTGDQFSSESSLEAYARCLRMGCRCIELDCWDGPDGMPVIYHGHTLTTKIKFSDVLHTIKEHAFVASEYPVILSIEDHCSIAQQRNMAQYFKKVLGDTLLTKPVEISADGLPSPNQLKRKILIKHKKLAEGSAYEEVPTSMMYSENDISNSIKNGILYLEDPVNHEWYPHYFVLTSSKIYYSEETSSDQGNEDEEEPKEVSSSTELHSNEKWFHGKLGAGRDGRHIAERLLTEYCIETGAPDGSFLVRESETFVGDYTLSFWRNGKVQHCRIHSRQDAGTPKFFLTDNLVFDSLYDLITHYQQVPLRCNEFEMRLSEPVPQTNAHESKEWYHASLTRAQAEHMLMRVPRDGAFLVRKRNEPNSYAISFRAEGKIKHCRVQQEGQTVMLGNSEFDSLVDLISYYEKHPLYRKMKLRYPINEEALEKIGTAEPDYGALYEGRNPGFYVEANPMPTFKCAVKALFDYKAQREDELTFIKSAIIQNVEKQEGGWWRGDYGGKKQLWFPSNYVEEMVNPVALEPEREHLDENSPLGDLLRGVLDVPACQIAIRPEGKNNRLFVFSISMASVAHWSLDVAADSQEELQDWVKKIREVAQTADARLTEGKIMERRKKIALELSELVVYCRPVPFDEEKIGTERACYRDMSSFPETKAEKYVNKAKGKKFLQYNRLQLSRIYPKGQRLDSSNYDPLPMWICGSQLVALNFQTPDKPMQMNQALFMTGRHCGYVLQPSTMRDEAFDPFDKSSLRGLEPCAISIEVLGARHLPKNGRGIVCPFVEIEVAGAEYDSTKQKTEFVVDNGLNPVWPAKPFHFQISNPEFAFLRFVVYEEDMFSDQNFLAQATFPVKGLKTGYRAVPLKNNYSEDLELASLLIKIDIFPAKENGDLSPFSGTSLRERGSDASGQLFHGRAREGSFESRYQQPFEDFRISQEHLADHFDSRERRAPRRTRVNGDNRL", "assay": "Counterscreen for inhibitors of phospholipase C isozymes (PLC-B3): Fluorescence-based biochemical high throughput dose response assay to identify inhibitors of phospholipase C isozymes (PLC-gamma1)."}, "[3]": {"target": "NAD-dependent protein deacylase sirtuin-5, mitochondrial (Homo sapiens, UniProt Q9NXA8)", "sequence (Q9NXA8 whole entry)": "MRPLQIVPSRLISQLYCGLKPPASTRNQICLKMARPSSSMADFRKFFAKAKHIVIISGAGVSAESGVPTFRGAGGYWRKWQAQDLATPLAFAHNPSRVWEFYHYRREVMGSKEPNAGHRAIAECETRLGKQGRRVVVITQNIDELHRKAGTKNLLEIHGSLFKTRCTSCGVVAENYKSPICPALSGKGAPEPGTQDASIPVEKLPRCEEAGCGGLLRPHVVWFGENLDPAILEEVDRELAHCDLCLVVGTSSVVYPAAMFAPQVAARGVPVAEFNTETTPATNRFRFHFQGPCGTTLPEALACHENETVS", "assay": "sirtuin-5 deacylation blockers, concentration series – biochemical, fluorescence imaging, cherry-pick, set 5, dose response (AID 720591);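 further: desuccinylation of succinyl peptide AMC substrate read as fluorescence after trypsin release; potency of inhibitors that lower fluorescence and may act on trypsin instead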"}, "fMet-Leu-Phe receptor": {"target": "fMet-Leu-Phe receptor (Homo sapiens, UniProt P21462)", "sequence (P21462 whole entry)": "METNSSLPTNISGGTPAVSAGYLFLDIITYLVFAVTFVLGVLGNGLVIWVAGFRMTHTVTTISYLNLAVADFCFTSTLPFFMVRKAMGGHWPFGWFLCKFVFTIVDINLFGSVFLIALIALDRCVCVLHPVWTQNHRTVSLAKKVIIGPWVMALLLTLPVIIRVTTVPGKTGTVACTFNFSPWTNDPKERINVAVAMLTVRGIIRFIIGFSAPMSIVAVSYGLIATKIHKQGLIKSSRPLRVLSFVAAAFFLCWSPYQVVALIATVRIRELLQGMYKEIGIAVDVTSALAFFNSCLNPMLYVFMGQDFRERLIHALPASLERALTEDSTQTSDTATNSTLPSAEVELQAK", "assay": "formyl peptide receptor binders – dose response (AID 519)", "assay_type": "functional"}, "[4]": {"assay": "general mammalian cell viability loss – activator set, cherry-pick, cytotoxicity control for miR-122 modulator project, dose response (AID 720690);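 further: HEK293T human cells scored for general mammalian cytotoxicity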", "assay_type": "functional, cell-based"}, "[5]": {"assay": "activation of miR-122 Renilla sensor silencing – cell-based, Huh7 psiCHECK-miR122, Renilla luciferase, cherry-picked, dose response (AID 651956);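 further: huh7 hepatoma cells stably carrying a psiCHECK-2 miR-122 sensor plasmid; renilla luciferase signal reporting endogenous miR-122 activity after 48 h compound exposure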", "assay_type": "functional"}},
  "note": "Activity calls are given as the source filed them.",
  "data": [
    {"molecule": "O=S(=O)(c1ccc(Cl)cc1)c1cnc2ccccc2n1", "values": [
      {"measurement": "IC50", "setting": "[1]", "result": "> 123 µM (inactive)"},
      {"measurement": "IC50", "setting": "[2]", "result": "> 123 µM (inactive)"}
    ]},
    {"molecule": "O=S(=O)(c1ccc(NC2=NN=C(c3cc(F)ccc3F)CS2)cc1)N1CCOCC1", "values": [
      {"measurement": "AC50", "setting": "[3]", "result": "> 30 µM (inactive)"}
    ]},
    {"molecule": "C/C(=C1/SC(N2CCCC2)=NC1=O)c1ccc(Br)cc1", "values": [
      {"measurement": "Ki", "setting": "fMet-Leu-Phe receptor", "result": "> 66.7 µM (inactive)"}
    ]},
    {"molecule": "CCOC(=O)CSc1nnc(Cn2c(=O)sc3ccccc32)n1-c1ccccc1C", "values": [
      {"measurement": "IC50", "setting": "[1]", "result": "> 122 µM (inactive)"},
      {"measurement": "IC50", "setting": "[2]", "result": "> 122 µM (inactive)"}
    ]},
    {"molecule": "CCOc1ccc(C2C(C(=O)c3ccco3)=C(O)C(=O)N2Cc2cccnc2)cc1", "note": "(stereo not given)", "values": [
      {"measurement": "Ki", "setting": "fMet-Leu-Phe receptor", "result": "15.3 µM (inactive)"}
    ]},
    {"molecule": "CCN(Cc1nc(-c2ccccc2)no1)C(=O)c1ccco1", "values": [
      {"measurement": "AC50", "setting": "[3]", "result": "> 30 µM (inactive)"}
    ]},
    {"molecule": "COc1ccc(NC(=O)N2CCCCN3[C@H](CO)[C@H](c4ccc(C#CCC(C)C)cc4)[C@H]3C2)cc1", "values": [
      {"measurement": "AC50", "setting": "[4]", "result": "16 µM (active)"},
      {"measurement": "AC50", "setting": "[5]", "result": "7.68 µM (active)"}
    ]}
  ]
}
